Experimental findings from patent publication US20260256721A1, “ANTI-COCCIDIAL COMPOSITION COMPRISING QUINIC ACID AND USES THEREOF” (priority 2023, published 2026) are described below.

Data set [1] has as its system Eimeria tenella protozoa (sporozoites). The data set is described as follows: microbe, parasite or virus in culture. The format is cell-based. From the text:
(§1) A certain amount of oocysts (eggs) of Eimeria tenella and Eimeria maxima protozoa (College of Veterinary Medicine, Gyeongsang National University, Korea) were put in a tube containing glass beads and crushed, and then, in order to remove crushed oocyst cell walls and other debris, internal sporocysts were purified using Percoll density gradient, and washed with a PBS solution. For excystation of internal sporozoites, reagents comprising sodium taurocholic acid (sigma aldirich, USA) and trypsin (Ginco, USA), respectively, were treated to Eimeria tenella and Eimeria maxima sporangia and they were incubated, and then washed with PBS (Phosphate-Buffered Saline) solution once and the protozoa were obtained.
Quinic acid (Sigma, Cas No. 77-95-2) at concentrations ranging from 0 to 1000 ppm was reacted with Eimeria tenella oocysts at 40° C. for 3 hours. Following this, only live protozoa (sporozoites) were counted by microscopy. The mortality rate (%) of the protozoa was measured for each substance treatment compared to the negative control group treated with PBS. The results, as shown in FIG. 1 and Table 2, confirmed the anti-coccidial efficacy of quinic acid depending on the concentration.
(§2) Then, the mortality rate (%) was measured when each substance was treated compared to a negative control group to which PBS was treated, and the result is shown in Table 3 below.
After reacting 0.1% (v/v) DMSO, quinic acid, chlorogenic acid, theogallin, and cryptochlorogenic acid, respectively, with Eimeria tenella protozoa at a concentration of 10 ppm at 40° C. for 3 hours, only living protozoa (sporozoites) were counted by microscopy. Then, the mortality rate (%) was measured when each substance was treated compared to a negative control group to which PBS was treated, and the result is shown in Table 5 below.
The Eimeria tenella protozoa were killed by treating the quinic acid or sugarcane extract up to 1000 ppm concentration at maximum, and the minimal treatment concentration showing a mortality rate of 50% or more against Eimeria tenella protozoa was shown in Table 6 below.

Data set [2] deals with Eimeria maxima protozoa (sporozoites). The data set is described as follows: Direct killing effect against Eimeria maxima protozoa (live sporozoites counted by microscopy). In kind it is cell-based. The following applies: 3 h, read-out: Mortality rate of Eimeria maxima orozites [Killed sporozoites %].
Excerpt: as §1, §2

Setting [3] is: Eimeria tenella, 3 h, read-out: Mortality rate of Eimeria tenella orozites [Killed sporozoites %].
Setting [4] is: Eimeria tenella, 3 h, read-out: Mortality rate of Eimeria tenella sporozites [Killed sporozoites %].
Where [5] appears, read: Eimeria tenella, each substance treated up to 1000 ppm, minimum concentration with mortality rate of 50% or higher, x not defined (Table 4).
[6] abbreviates: Eimeria tenella, 3 h, read-out: The mortality rate.

The structures appear in SMILES notation. Where two headings read alike, the source gives them in different places.

For `O=C(/C=C/c1ccc(O)c(O)c1)O[C@@H]1C[C@](O)(C(=O)O)C[C@@H](O)[C@H]1O` [Chlorogenic acid, chlorogenic acid, reference compound], the mortality at 10 ppm in data set [1] (setting [3]), in data set [1] (setting [4]) and in data set [2] was 0% in each case. For the same compound, the “Minimum Dose for killed 50% sporozoite” value in data set [1] (setting [5]) is given as 500 ppm.

`O=C(/C=C/c1ccc(O)c(O)c1)O[C@H]1[C@H](O)C[C@](O)(C(=O)O)C[C@H]1O` [Cryptochlorogenic acid, cryptochlorogenic acid, reference compound]: the “Mortality rate of Eimeria tenella sporozites [Killed sporozoites %]” value in data set [1] (10 ppm, 40° C., 3 hours, compared to PBS negative control (Table 5)) is recorded as 0%.

On to `COc1cc(/C=C/C(=O)O)ccc1O` [Ferulic acid, ferulic acid, reference compound], for which the mortality at 10 ppm in data set [1] (setting [3]) and in data set [2] was 0% in each case.

In the case of `O=C(O)/C=C/c1ccc(O)c(O)c1` [Caffeic acid, caffeic acid, reference compound], the mortality at 10 ppm in data set [1] (setting [3]) and in data set [2] was 0% in each case.

For `O=C(O)[C@]1(O)C[C@@H](O)[C@@H](O)[C@H](O)C1` [Quinic acid, quinic acid], the mortality – broadly, the share of the test organisms that died – at 10 ppm in data set [1] (setting [3]) was 32%. For the same compound, the mortality at 10 ppm in data set [1] (setting [4]) turned out to be 32%. In addition, in data set [1] (setting [6]), the mortality at 0.78 ppm came out at 7.4%, the mortality at 1.56 ppm worked out at 14.9%, the mortality at 3.125 ppm was 20.2% and the mortality at 6.25 ppm is 25.5%. In data set [1] (setting [6]), the mortality at 12.5 ppm was determined as 31.9%, the mortality at 25 ppm was 35.1%, the mortality at 50 ppm amounted to 55.3% and the mortality at 100 ppm is 59.6%. In data set [1] (setting [6]), the mortality at 250 ppm stood at 91.5%, the mortality at 500 ppm amounted to 97.9% and the mortality at 1000 ppm was found to be 100%. Besides, the “Minimum Dose for killed 50% sporozoite” value in data set [1] (setting [5]) was 50 ppm. In data set [1] (Eimeria tenella, treated up to 1000 ppm at maximum, minimal concentration with mortality rate of 50% or more (Table 6)), the “Minimum Dose for killed 50% sporozoite” value is on record as 50 ppm. For the same compound, the mortality at 10 ppm in data set [2] is 34%.

Take `O=C(O)/C=C/c1cccc(O)c1` [m-coumaric acid, reference compound]: the mortality at 10 ppm was 10.7% in data set [1] (Eimeria tenella, 10 ppm, 40° C., 3 hours, compared to PBS negative control (Table 3), read-out: Mortality rate of Eimeria tenella orozites [Killed sporozoites %]) and 6.4% in data set [2]. In addition, the “Minimum Dose for killed 50% sporozoite” value in data set [1] (setting [5]) came out at 500 ppm.
